Test results reported in patent US9878054B2, “Polypeptide and lipophilic moiety conjugate compositions, formulations, and uses related thereto” (Tufts Medical Center, Inc., priority 2012, dated 2018).
Where a SMILES comes first, the peptide text is derived from it. The star is where a group is joined. Palmitoyl = CCCCCCCCCCCCCCCC(=O)*

What was measured:
PAR4 [1] = biological target: T1, PAR4 (Homo sapiens, UniProt Q96RI0); assay: Human platelet aggregation, PAR4 agonist AYPGKF; type: cell-based; conditions: human platelets; 200 μM AYPGKF
T1 construct: Platelets were isolated from platelet rich plasma (PRP) using Sepharose 2B columns; endogenous in cells; host or cells: human platelets from healthy donors, gel-filtered
T1 sequence (Q96RI0 18-385): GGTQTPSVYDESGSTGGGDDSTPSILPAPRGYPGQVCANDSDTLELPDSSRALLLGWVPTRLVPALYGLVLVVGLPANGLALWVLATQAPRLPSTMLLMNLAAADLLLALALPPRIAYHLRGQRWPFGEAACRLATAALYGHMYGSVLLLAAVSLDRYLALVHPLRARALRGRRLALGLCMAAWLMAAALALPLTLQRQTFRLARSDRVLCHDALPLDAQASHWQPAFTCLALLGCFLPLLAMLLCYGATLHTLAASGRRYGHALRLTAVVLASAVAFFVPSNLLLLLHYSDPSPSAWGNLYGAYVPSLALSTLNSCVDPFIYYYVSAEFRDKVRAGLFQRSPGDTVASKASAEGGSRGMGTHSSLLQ
Method: (§1) A, Depiction of the mechanism of action of the cell-penetrating PZ-128 pepducin compound targeting the third intracellular loop (red) of PAR1. B, The NMR structure of PZ-128 was determined by simulated annealing methods using 210 distance restraints and included restraints to the proximal 3 hydrocarbons of the lipid. […] D, PZ-128 inhibits PAR1-dependent platelet aggregation. Gel filtered human platelets were treated with various concentrations of PZ-128 and then challenged with the PAR1 agonist SFLLRN (2.5 μM), 20 μM ADP, 200 μM AYPGKF or 1 mg/ml Ristocetin. E, Human platelets were treated with 3 μM PZ-128, 3 μM RWJ-56110, or 5% dextrose vehicle before the addition of various concentrations of thrombin (n=3-5).
(§2) PZ-128 also markedly right-shifted thrombin-induced aggregation by 5-fold. By comparison, the small molecule RWJ-56110 which antagonizes PAR1 at the extracellular ligand-binding site gave a 2-fold right shift in the thrombin activation curve of human platelets.
(§3) Whole blood from healthy donors was collected into a 30 ml syringe containing sodium citrate (0.4% vol/vol final). Platelets were isolated from platelet rich plasma (PRP) using Sepharose 2B columns in modified PIPES buffer.

[2] = system: human platelets (Ristocetin); assay: Human platelet aggregation, ristocetin; type: cell-based; conditions: 1 mg/ml Ristocetin
Method: as §1, §2, §3

PAR1 [3] = assay: Guinea pig ex vivo platelet aggregation to SFLLRN after iv infusion; type: in vivo; conditions: 3 and 6 mg/kg, 10 min iv infusion, 15 min time point, 2.5 μM SFLLRN
Method: (§6) PZ-128 or 5% dextrose USP vehicle was infused for 10 min into the jugular vein of male and female guinea pigs (0.55-0.65 kg). A-C, At the 15 min time point, whole blood was collected by cardiac puncture in 100 μg/ml PPACK/4% Na-citrate (final) anti-coagulant and platelet rich plasma (PRP) prepared and aggregation measurements were performed. […] B-C, PRP obtained at the 15 min time point after infusion with vehicle, 3 mg/kg PZ-128 or 6 mg/kg PZ128 was challenged with 2.5 μM SFLLRN, 20 μM ADP or 20 μM thromboxane mimetic, U46119. Individual data points (n=3) are overlayed on bar graphs depicting mean±SD. […] Data in B-D were analyzed by the non-parametric Kruskal-Wallis test with the Dunn's multiple pairwise comparison post-test.
(§7) PZ-128 micelles were delivered by internal jugular vein infusions over 10 min.
(§8) Guinea pigs weighing 600-650 g were used for platelet aggregation experiments. PZ-128 micelles (3 or 6 mg/kg) were administered by a 10 min intravenous infusion, and blood was collected by cardiac puncture into sodium citrate (0.4% vol/vol final) 5 minutes after cessation of the infusion. PRP was prepared and PPACK added to a final concentration of 100 μg/ml. PRP was calcified with 2.5 mM CaCl2 and aggregation was performed as described above.

[4] = system: guinea pig platelets (ADP); assay: Guinea pig ex vivo platelet aggregation to ADP after iv infusion; type: in vivo; conditions: 3 or 6 mg/kg iv, 20 μM ADP
Method: as §6, §7, §8

PAR1 [5] = assay: Baboon ex vivo platelet aggregation, SFLLRN (PAR1); type: in vivo
Method: (§4) A-C, Male baboons (10-12 kg) were administered 1, 3 or 6 mg/kg PZ-128, or 5% dextrose USP vehicle by iv infusion and blood collected into 100 μg/ml PPACK anticoagulant at 0, 1, 2, 6, or 24 h time points. Light transmission platelet aggregometry was performed with platelet rich plasma with the indicated agonists (SFLLRN for PAR1, AYPGKF for PAR4 and ADP for P2Y12 and P2Y1). Data are reported as mean±SD (n=3-7) relative to time 0 controls (0%) and were analyzed by repeated measures one-way ANOVA with Bonferroni post-test correction; *P<0.05, **P<0.01 relative to time 0. Global P values were >0.05 for 1 mg/kg, 0.004 for 3 mg/kg, <0.0001 for 6 mg/kg. D, Pharmacokinetics of 3 and 6 mg/kg 45-min iv infusions of PZ-128 in male baboons. Plasma PZ-128 levels were measured by LC/MS/MS at 9 sequential time points: baseline, 15 min, 30 min, 1 h, 2 h, 4 h, 8 h, 24 h and 48 h after the start of infusion. Open symbols indicated plasma concentrations that were under the measurement threshold (5 ng/ml).
The anti-platelet effects of PZ-128 micelles were next examined in baboons at various time points after receiving different doses of intravenous infusions. […] At the lowest dose tested, 1 mg/kg PZ-128 micelles ([…]), PAR1-dependent aggregation (5 μM SFLLRN) was inhibited by only 5-10% at the 1-2 h time points (FIG. 3A). […] As a further assessment of in vivo specificity, PZ-128 gave no inhibition at any dose of either the ADP or AYPGKF (PAR4) responses at any time point.
(§5) Non-terminal thrombosis and platelet aggregation studies were performed on 12 healthy male baboons (Papio anubis) weighing 9-12 kg at the Oregon National Primate Research Center (ONPRC). […] Whole blood (10 ml) was collected into PPACK at a final concentration of 100 μg/ml just prior to infusion (baseline) and 15 min to 24 h after the PZ-128 micelle infusion was terminated. Platelet counts and hematocrit were measured immediately. PRP was prepared from whole blood and platelet aggregation performed as described above. Bleeding time (BT) measurements were performed on the shaved volar surface of the forearm using the standard template method.

PAR4 [6] = assay: Baboon ex vivo platelet aggregation, AYPGKF (PAR4); type: in vivo; conditions: any dose, any time point
Method: as §4
The anti-platelet effects of PZ-128 micelles were next examined in baboons at various time points after receiving different doses of intravenous infusions. […]
Non-terminal thrombosis and platelet aggregation studies were performed on 12 healthy male baboons (Papio anubis) weighing 9-12 kg at the Oregon National Primate Research Center (ONPRC). […] Platelet counts and hematocrit were measured immediately. […]

[7] = Bleeding time, platelet counts and hematocrit in baboons; type: in vivo; conditions: baboon; all doses tested (1-6 mg/kg)
Method: Whether PZ-128 had any adverse effects on hemostasis or coagulation indices in baboons and monkeys was evaluated. At all doses tested (1-6 mg/kg), PZ-128 micelles had no effect on bleeding time, platelet counts or hematocrit in baboons (Table 2).
as §5

[8] = PT, aPTT, bleeding and plasma levels in cynomolgus monkeys after daily iv infusions; type: in vivo; conditions: cynomolgus monkey
Method: PZ-128 micelles were also administered daily for 4 days to adult male and female cynomolgus monkeys with 1 h iv infusions of 3 mg/kg, 10 mg/kg and 30 mg/kg PZ-128. Coagulation parameters prothrombin time (PT) and activated partial thromboplastin time (aPTT) were unaffected in all monkeys at 3-30 mg/kg PZ-128 at either day 1 and day 5 as compared to baseline or vehicle-treated animals (Table 2).
PZ-128 micelles (0, 3, 10 or 30 mg/kg) were administered intravenously to 2.5-4.5 kg male and female cynomolgus monkeys by infusion over 1 h at MPI Laboratories (Mattawan, Mich.). Peripheral venous blood was collected from cynomolgus monkeys into K3EDTA anticoagulant at baseline (Day −8) and at two time points (Day 1 and Day 5) after daily 1-h intravenous PZ-128 micelle infusions on days 1-4. PT and aPTT were analyzed immediately on a MLA-800 coagulation analyzer.

[9] = 3-30 mg/kg, 1 h iv infusion daily for 4 days, day 1 and day 5

Inhibitory activity against PAR4 (AYPGKF) aggregation (PAR4 [1]): no inhibitory activity
Effect on bleeding time, platelet counts or hematocrit [7]: no effect
Cmax ([8]; both sexes, plasma, up to 30 mg/kg iv infusion): > 200 µM
Activated partial thromboplastin time (aPTT) [8, 9]: unaffected
Prothrombin time (PT) [8, 9]: unaffected
SMILES: CCCCCCCCCCCCCCCC(=O)N[C@@H](CCCCN)C(=O)N[C@@H](CCCCN)C(=O)N[C@@H](CO)C(=O)N[C@@H](CCCNC(=N)N)C(=O)N[C@@H](C)C(=O)N[C@@H](CC(C)C)C(=O)N[C@@H](Cc1ccccc1)C(N)=O [PZ-128, palmitate-KKSRALF-NH2] (Palmitoyl-KKSRALF-NH2)
Inhibitory activity against ristocetin aggregation [2]: no inhibitory activity
Inhibition of ex vivo platelet aggregation to SFLLRN (PAR1 [3]): significant, dose-dependent inhibition
Effect on ex vivo aggregation to ADP [4]: no effect
Inhibition of PAR1-dependent ex vivo aggregation (PAR1 [5]; 1 mg/kg, 30 min infusion, 5 μM SFLLRN, 1-2 h): 5-10%
Reversibility: inhibition with higher concentration of SFLLRN agonist (PAR1 [5]; 3 mg/kg and 6 mg/kg, 10 μM SFLLRN): loss of inhibition
Inhibition of PAR1-dependent ex vivo aggregation (PAR1 [5]; 3 mg/kg, 30 min infusion, 1 h and 2 h): 85%
Inhibition of PAR1-dependent ex vivo aggregation (PAR1 [5]; 3 mg/kg, 24 h): not appreciably inhibited
Inhibition of PAR1-dependent ex vivo aggregation (PAR1 [5]; 6 mg/kg, 45 min infusion, 1-2 h): 100%
Inhibition of PAR1-dependent ex vivo aggregation (PAR1 [5]; 6 mg/kg, 45 min infusion, 6 h): 90%
PAR1-dependent ex vivo aggregation, recovery (PAR1 [5]; 6 mg/kg, 24 h): completely recovered
Inhibition of AYPGKF (PAR4) response ex vivo (PAR4 [6]): no inhibition
Spontaneous, venous access, or retinal bleeding ([8]; 3-30 mg/kg daily iv): No spontaneous, venous access, or retinal bleeding was observed
